In patent US20250277012A1 (Protagonist Therapeutics, Inc., priority 2021, published 2025):
Like-named read-outs stand apart in the source and are kept apart here. Starred links: 1 amine or outer side, 2 acyl side, 3 side chain; linkers in the order of their positions; H or OH if unused. Positions of bridges follow the written chain, without caps; N, C: chain ends. Non-standard residues stand in square brackets, D forms with d. Residues, ends and D or L forms follow the SMILES beside them. Groups on a side chain read outwards from the residue. *: point of attachment. X5 = CCCCCCCCCCCCCCCC(=O)NCC[N+](C)(C)CC(=O)*; C18 diacid = O=C(O)CCCCCCCCCCCCCCCCC(=O)*; Dip = N[C@H](C(=O)O)C(c1ccccc1)c1ccccc1; Phenylacetyl(4-F) = O=C(Cc1ccc(F)cc1)*; γGlu = O=C(O)[C@H](CCC(=O)[*:2])N[*:1]; dNMeY = CN[C@H](Cc1ccc(O)cc1)C(=O)O; Palmitoyl = CCCCCCCCCCCCCCCC(=O)*; NMeF = CN[C@@H](Cc1ccccc1)C(=O)O; NMeE = CN[C@@H](CCC(=O)O)C(=O)O; β3hF = N[C@H](CC(=O)O)Cc1ccccc1; dNMeL = CN[C@H](CC(C)C)C(=O)O; NMeK = CN[C@@H](CCCCN)C(=O)O; αMeK = C[C@](N)(CCCCN)C(=O)O; Isovaleryl = CC(C)CC(=O)*; Dab = NCC[C@H](N)C(=O)O; Dap = NC[C@H](N)C(=O)O; AEEA = NCCOCCOCC(=O)O; Ahx = NCCCCCC(=O)O

Key:
ferroportin [1] = molecular target: T1, ferroportin (Homo sapiens, UniProt Q9NP59); assay: T47D cell-based ferroportin internalization assay in presence of mouse serum albumin (MSA); set-up: a human breast carcinoma adherent cell line which endogenously expresses ferroportin; host or cells: T47D
T1 sequence (Q9NP59 1-571): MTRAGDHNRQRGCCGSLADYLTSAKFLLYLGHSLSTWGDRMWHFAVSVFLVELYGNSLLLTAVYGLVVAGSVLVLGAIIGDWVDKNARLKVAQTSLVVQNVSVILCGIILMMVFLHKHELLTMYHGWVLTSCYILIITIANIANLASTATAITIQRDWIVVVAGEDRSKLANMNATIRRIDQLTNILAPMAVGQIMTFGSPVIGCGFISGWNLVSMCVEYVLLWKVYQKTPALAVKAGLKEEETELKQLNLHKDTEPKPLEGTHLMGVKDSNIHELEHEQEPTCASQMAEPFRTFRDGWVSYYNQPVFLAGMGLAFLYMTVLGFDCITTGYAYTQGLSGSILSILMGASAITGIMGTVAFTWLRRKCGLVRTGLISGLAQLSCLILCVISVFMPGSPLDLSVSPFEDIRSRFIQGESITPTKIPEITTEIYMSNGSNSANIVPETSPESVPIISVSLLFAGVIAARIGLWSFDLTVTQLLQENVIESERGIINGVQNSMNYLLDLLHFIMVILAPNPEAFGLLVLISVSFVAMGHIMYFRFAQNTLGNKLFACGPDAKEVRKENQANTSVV
In short: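 Peptide potency for inducing ferroportin internalization was measured in T47D cells in the presence of serum albumin. Cells grown in RPMI with fetal bovine serum were seeded in 96-well plates at 80-100 k cells per well in 100 ul and rested overnight. Dilution series of test peptides were preincubated 30 min at room temperature, then added to the cells after the medium was aspirated.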

ferroportin [2] = molecular target: T1, ferroportin; assay: FPN activity assay: ferroportin-GFP internalization/degradation in HEK293 cells; assay type: cell-based; set-up: expressed in transfected cells; details: read-out: FPN IC50
Procedure: Following internalization, the ferroporin protein is degraded.
A retro inverse peptide is a peptide with a reversed sequence in all D amino acids. An example is that Hy-Glu-Thr-His-NH2 becomes Hy-DHis-DThr-DGlu-NH2. The EC50 of these reference compounds for ferroportin internalization/degradation was determined according to the FPN activity assay described above. These peptides served as control standards.

[3] = T47D internalization assay in presence of mouse serum albumin (MSA), Table 6E
[4] = ferroportin-GFP internalization/degradation, HEK293 cells, Table 6E
[5] = T47D cells, 0.5% mouse serum albumin, 1 hr incubation
[6] = ferroportin-GFP HEK293 cells, at least 18 hours
[7] = Table 6E, T47D internalization assay with MSA

Row | Structure (SMILES) | IC50 (ferroportin [1]; [3]) [nM] | DC50 (ferroportin [2]; [4]) [nM] | IC50 (ferroportin [1]; [5]) [nM] | DC50 (ferroportin [2]; [6]) [nM] | IC50 (ferroportin [1]; [7]) [nM]
1 | CC(C)CC(=O)N[C@@H](CCC(=O)O)C(=O)N[C@H](C(=O)N[C@@H](Cc1c[nH]cn1)C(=O)N[C@H](C(=O)N1CCC[C@H]1C(=O)N[C@H]1CSSC[C@@H](C(=O)N(C)[C@@H](CCCCNC(=O)COCCOCCNC(=O)COCCOCCNC(=O)[C@H](CN)NC(=O)CCCCCCCCCCCCCCCCC(=O)O)C(=O)N[C@H](CC(=O)N[C@@H](CCN)C(N)=O)Cc2ccccc2)NC1=O)C(c1ccccc1)c1ccccc1)[C@@H](C)O [compound 264] (Isovaleryl-ETH[Dip]PCC[NMeK]([AEEA-AEEA-Dap-C18 diacid])[β3hF][Dab]-NH2; disulfide 6-7) | 10 to 100 | 10 to 100 | – | – | –
2 | CC(C)CC(=O)N[C@@H](CCC(=O)O)C(=O)N[C@H](C(=O)N[C@@H](Cc1cnc[nH]1)C(=O)N[C@H](C(=O)N1CCC[C@H]1C(=O)N[C@H]1CSSC[C@@H](C(=O)N(C)[C@@H](CCCCNC(=O)COCCOCCNC(=O)COCCOCCNC(=O)[C@H](CN)NC(=O)CCCCCCCCCCCCCCCCC(=O)O)C(=O)N[C@H](CC(=O)N[C@H](CCCCN)C(=O)N(C)[C@H](CC(C)C)C(N)=O)Cc2ccccc2)NC1=O)C(c1ccccc1)c1ccccc1)[C@@H](C)O [compound 249] (Isovaleryl-ETH[Dip]PCC[NMeK]([AEEA-AEEA-Dap-C18 diacid])[β3hF][dK][dNMeL]-NH2; disulfide 6-7) | 10 to 100 | 10 to 100 | – | – | –
3 | C[C@@H](O)[C@H](NC(=O)[C@H](CCC(=O)O)NC(=O)Cc1ccc(F)cc1)C(=O)N[C@@H](Cc1c[nH]cn1)C(=O)N[C@H](C(=O)N1CCC[C@H]1C(=O)N[C@H]1CSSC[C@@H](C(=O)N(C)[C@@H](CCCCNC(=O)COCCOCCNC(=O)COCCOCCNC(=O)[C@H](CN)NC(=O)CCCCCCCCCCCCCCCCC(=O)O)C(=O)N[C@H](CC(=O)N[C@H](CCCCN)C(N)=O)Cc2ccccc2)NC1=O)C(c1ccccc1)c1ccccc1 [compound 298] ({Phenylacetyl(4-F)}-ETH[Dip]PCC[NMeK]([AEEA-AEEA-Dap-C18 diacid])[β3hF][dK]-NH2; disulfide 6-7) | 10 to 100 | 10 to 100 | – | – | –
4 | CC(C)CC(=O)N[C@@H](CCC(=O)O)C(=O)N[C@H](C(=O)N[C@@H](Cc1c[nH]cn1)C(=O)N[C@H](C(=O)N1CCC[C@H]1C(=O)N[C@H]1CSSC[C@@H](C(=O)N(C)[C@@H](CCCCNC(=O)COCCOCCNC(=O)COCCOCCNC(=O)[C@H](CN)NC(=O)CCCCCCCCCCCCCCCCC(=O)O)C(=O)N[C@H](CC(=O)N[C@H](CCCCN)C(=O)N(C)[C@H](Cc2ccc(O)cc2)C(N)=O)Cc2ccccc2)NC1=O)C(c1ccccc1)c1ccccc1)[C@@H](C)O [compound 257] (Isovaleryl-ETH[Dip]PCC[NMeK]([AEEA-AEEA-Dap-C18 diacid])[β3hF][dK][dNMeY]-NH2; disulfide 6-7) | 10 to 100 | 10 to 100 | – | – | –
5 | CC[C@H](C)[C@H](NC(=O)[C@@H]1CSSC[C@H](NC(=O)[C@@H](NC(=O)[C@H](Cc2c[nH]cn2)NC(=O)[C@@H](NC(=O)[C@H](CCC(=O)O)NC(=O)CC(C)C)[C@@H](C)O)C(c2ccccc2)c2ccccc2)C(=O)N1)C(=O)N[C@@H](CCCCNC(=O)COCCOCCNC(=O)COCCOCCNC(=O)CCCCCNC(=O)CCCCCCCCCCCCCCCCC(=O)O)C(=O)N[C@H](CC(=O)N[C@H](CCCCN)C(N)=O)Cc1ccccc1 [Compd 21] (Isovaleryl-ETH[Dip]CCIK([AEEA-AEEA-Ahx-C18 diacid])[β3hF][dK]-NH2; disulfide 5-6) | – | – | 10 to 100 | 10 to 100 | –
6 | CC(C)CC(=O)N[C@@H](CCC(=O)O)C(=O)N[C@H](C(=O)N[C@@H](Cc1c[nH]cn1)C(=O)N[C@H](C(=O)N1CCC[C@H]1C(=O)N[C@H]1CSSC[C@@H](C(=O)N(C)[C@@H](CCCCNC(=O)COCCOCCNC(=O)COCCOCCNC(=O)[C@H](CN)NC(=O)CCCCCCCCCCCCCCCCC(=O)O)C(=O)N(C)[C@@H](Cc2ccccc2)C(=O)N[C@H](CCCCN)C(N)=O)NC1=O)C(c1ccccc1)c1ccccc1)[C@@H](C)O [compound 291] (Isovaleryl-ETH[Dip]PCC[NMeK]([AEEA-AEEA-Dap-C18 diacid])[NMeF][dK]-NH2; disulfide 6-7) | 10 to 100 | 10 to 100 | – | – | –
7 | CC(C)CC(=O)N[C@@H](CCC(=O)O)C(=O)N[C@H](C(=O)N[C@@H](Cc1c[nH]cn1)C(=O)N[C@H](C(=O)N1CCC[C@H]1C(=O)N[C@H]1CSSC[C@@H](C(=O)N[C@@](C)(CCCCNC(=O)COCCOCCNC(=O)COCCOCCNC(=O)[C@H](CN)NC(=O)CCCCCCCCCCCCCCCCC(=O)O)C(=O)N[C@H](CC(=O)N[C@H](CCCCN)C(N)=O)Cc2ccccc2)NC1=O)C(c1ccccc1)c1ccccc1)[C@@H](C)O [compound 302] (Isovaleryl-ETH[Dip]PCC[αMeK]([AEEA-AEEA-Dap-C18 diacid])[β3hF][dK]-NH2; disulfide 6-7) | 10 to 100 | 10 to 100 | – | – | –
8 | CC[C@H](C)[C@H](NC(=O)[C@@H]1CSSC[C@H](NC(=O)[C@@H](NC(=O)[C@H](Cc2c[nH]cn2)NC(=O)[C@@H](NC(=O)[C@H](CCC(=O)O)NC(=O)CC(C)C)[C@@H](C)O)C(c2ccccc2)c2ccccc2)C(=O)N1)C(=O)N[C@@H](CCCCNC(=O)COCCOCCNC(=O)COCCOCCNC(=O)CC[C@H](NC(=O)CCCCCCCCCCCCCCCCC(=O)O)C(=O)O)C(=O)N[C@H](CC(=O)N[C@H](CCCCN)C(N)=O)Cc1ccccc1 [Compd 30] (Isovaleryl-ETH[Dip]CCIK([AEEA-AEEA-γGlu-C18 diacid])[β3hF][dK]-NH2; disulfide 5-6) | – | – | 10 to 100 | 10 to 100 | –
9 | CC(C)CC(=O)N[C@@H](CCC(=O)O)C(=O)N[C@H](C(=O)N[C@@H](Cc1c[nH]cn1)C(=O)N[C@H](C(=O)N1CCC[C@H]1C(=O)N[C@H]1CSSC[C@@H](C(=O)N(C)[C@@H](CCCCNC(=O)COCCOCCNC(=O)COCCOCCNC(=O)[C@H](CN)NC(=O)CCCCCCCCCCCCCCCCC(=O)O)C(=O)N[C@H](CC(=O)N[C@H](CCCCN)C(=O)N(C)[C@@H](Cc2ccccc2)C(N)=O)Cc2ccccc2)NC1=O)C(c1ccccc1)c1ccccc1)[C@@H](C)O [compound 263] (Isovaleryl-ETH[Dip]PCC[NMeK]([AEEA-AEEA-Dap-C18 diacid])[β3hF][dK][NMeF]-NH2; disulfide 6-7) | 10 to 100 | 10 to 100 | – | – | –
10 | CCCCCCCCCCCCCCCC(=O)NCCCCCC(=O)NCCCC[C@@H](C(=O)N[C@H](CC(=O)N[C@H](CCCCN)C(N)=O)Cc1ccccc1)N(C)C(=O)[C@@H]1CSSC[C@H](NC(=O)[C@@H]2CCCN2C(=O)[C@@H](NC(=O)[C@H](Cc2cnc[nH]2)NC(=O)[C@@H](NC(=O)[C@H](CCC(=O)O)NC(=O)CC(C)C)[C@@H](C)O)C(c2ccccc2)c2ccccc2)C(=O)N1 [compound 308] (Isovaleryl-ETH[Dip]PCC[NMeK]([Ahx-Palmitoyl])[β3hF][dK]-NH2; disulfide 6-7) | 1 to 10 | 10 to 100 | – | – | –
11 | CCCCCCCCCCCCCCCC(=O)NCC[N+](C)(C)CC(=O)NCCCCCC(=O)NCCCC[C@@H](C(=O)N[C@H](C(=O)N[C@H](CCCCN)C(N)=O)C(c1ccccc1)c1ccccc1)N(C)C(=O)[C@@H]1CSSC[C@H](NC(=O)[C@@H]2CCCN2C(=O)[C@@H](NC(=O)[C@H](Cc2cnc[nH]2)NC(=O)[C@@H](NC(=O)[C@H](CCC(=O)O)NC(=O)CC(C)C)[C@@H](C)O)C(c2ccccc2)c2ccccc2)C(=O)N1 [compound 197] (Isovaleryl-ETH[Dip]PCC[NMeK]([Ahx-X5])[Dip][dK]-NH2; disulfide 6-7) | – | – | – | – | 1 to 10
12 | CCCCCCCCCCCCCCCC(=O)NCC[N+](C)(C)CC(=O)NCCCCCC(=O)NCCCC[C@@H](C(=O)N[C@H](C(=O)N[C@H](CCCCN)C(N)=O)C(c1ccccc1)c1ccccc1)N(C)C(=O)[C@@H]1CSSC[C@H](NC(=O)[C@@H]2CCCN2C(=O)[C@@H](NC(=O)[C@H](Cc2cnc[nH]2)NC(=O)[C@@H](NC(=O)[C@H](CCC(=O)O)N(C)C(=O)CC(C)C)[C@@H](C)O)C(c2ccccc2)c2ccccc2)C(=O)N1 [compound 167] (Isovaleryl-[NMeE]TH[Dip]PCC[NMeK]([Ahx-X5])[Dip][dK]-NH2; disulfide 6-7) | – | – | – | – | 1 to 10
